From US12071414B2, “Apelin receptor agonists and methods of use thereof” (Sanford Burnham Prebys Medical Discovery Institute, priority 2015, dated 2024)

Target: T1, human apelin receptor (APJ, AGTRL-one, APLNR) (Homo sapiens, UniProt P35414)
T1 construct: host or cells: Chinese hamster ovary cells, stably integrated receptor
T1 sequence (P35414 1-380): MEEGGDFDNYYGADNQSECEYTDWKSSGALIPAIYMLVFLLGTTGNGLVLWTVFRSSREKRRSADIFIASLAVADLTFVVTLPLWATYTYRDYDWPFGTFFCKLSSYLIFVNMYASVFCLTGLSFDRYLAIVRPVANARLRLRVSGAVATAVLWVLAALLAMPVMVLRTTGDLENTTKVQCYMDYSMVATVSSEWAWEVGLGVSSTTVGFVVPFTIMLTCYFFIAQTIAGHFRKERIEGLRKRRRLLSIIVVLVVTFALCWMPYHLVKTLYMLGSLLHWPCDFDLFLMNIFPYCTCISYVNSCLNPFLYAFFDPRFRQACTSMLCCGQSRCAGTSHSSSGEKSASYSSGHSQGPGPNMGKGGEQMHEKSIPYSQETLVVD
Assay: cell-based cAMP TR-FRET assay of apelin receptor activation
Conditions: CHO cells expressing human APJ, forskolin-stimulated cAMP, 0.5 h incubation, 50% of control (apelin-13, 1 nM) response; read-out: Potency Category (EC50)
Procedure: The assays disclosed herein were performed using cell lines from DiscoveX, Inc. Biological activity was determined to the cell—based assay. This assay detects activation of the receptor by reporting on intracellular cyclic adenosine monophosphate (cAMP) level. Chinese hamster ovary cells engineered to express the stably integrated human apelin receptor (APJ, AGTRL—one, APLNR), pleaded into the wells of the microtiter plate. Cells were stimulated with […] to increase intracellular cyclic AMP. Immediately following, compounds were added to the range of final concentrations 0.0-100 μM, in DMSO (not to exceed a final DMSO concentration greater than 1% ν/ν), and allowed to incubate with the cells for 0.5 h. At the end of the incubation, cells were lysed to stop APJ signaling and cAMP was quantified using a commercially available competitive immunoassay kit that applies homogenous time—resolved florescence energy transfer (TR—FRET). The assay is based on the competition between a europium (Eu) chelate—labeled cAMP donor tracer and cellular cAMP for binding sites on a cAMP—specific monoclonal antibody labeled with an acceptor fluorophore. When antibodies are bound to the cAMP tracer light emissions at 320 nm stimulate the energy transfer from the donor to the acceptor, which in turn emits light at 665 nm. In the presence of competitive unlabeled cAMP (derived from the activity of the receptor or forskolin-stimulated production of cAMP), the labelled cAMP tracer is dissociated from the cAMP antibody, resulting in a loss of FRET signal. The amount of light emitted by the FRET is inversely proportional to the cAMP generated by the cell/receptor system. Potency and efficacy at APJ are reported in reference to the canonical APJ receptor agonist apelin—13 when tested at 1 nM. […] Compound efficacy (% response) is reported as a percentage of the maximal apein-13 response at 1 nM (control). Potencies were calculated by fitting a […] logistic curve to concentration response consisting of at least 10 discrete data points spanning effective range of the compounds in the cell-based assay that measures cAMP. […] Category B is 200-500 nM; Category C is 100-200 nM; Category D is 50-100 nM; and Category E is <50 nM.

Row | Compound | EC50 [nM]
1 | COc1ccc(OC(C(=O)Nc2nc3cc(OC)c(OC)cc3s2)c2ccccc2S(=O)(=O)c2ccc(F)cc2)cc1 (centres unmarked) | > 500
2 | COC(=O)c1ccc(C(Oc2ccc(C#N)cc2)C(=O)Nc2nc3cc(OC)c(OC)cc3s2)cc1 (centres unmarked) | 100 to 200
3 | CCS(=O)(=O)c1ccc(C(OCC=C(C)C)C(=O)Nc2nc3cc(OC)c(OC)cc3s2)cc1 (centres unmarked) | > 500
4 | CCS(=O)(=O)c1ccc(C(Oc2ccc(C#N)cc2)C(=O)Nc2nc3cc(OC)c(Cl)cc3s2)cc1 (centres unmarked) | > 500
5 | CCS(=O)(=O)c1ccc(C(OCCc2ccccc2)C(=O)Nc2nc3cc(OC)c(OC)cc3s2)cc1 (centres unmarked) | > 500
6 | COc1cc2nc(NC(=O)C(Oc3ccc(C(=O)NCCN(C)C)cc3)c3ccc(C#N)cc3)sc2cc1OC (centres unmarked) | 50 to 100
7 | COc1ccc(OC(C(=O)Nc2nc3cc(OC)c(OC)cc3s2)c2ccc(C#N)cc2)cc1 (centres unmarked) | < 50
8 | COc1cc2nc(NC(=O)C(Oc3ccc(C#N)cc3)c3ccc(OCCN4CCOCC4)cc3)sc2cc1OC (centres unmarked) | 200 to 500
9 | CCS(=O)(=O)c1ccc(C(Oc2ccc(C#N)c(F)c2)C(=O)Nc2nc3cc(OC)c(OC)cc3s2)cc1 (centres unmarked) | < 50
10 | CCOc1cc2nc(NC(=O)C(Oc3ccc(C#N)cc3)c3ccc(S(=O)(=O)CC)cc3)sc2cc1OC (centres unmarked) | < 50
11 | CCS(=O)(=O)c1ccc([C@H](Oc2ccc(C#N)cc2)C(=O)Nc2nc3cc(OC)c(OC)cc3s2)cc1 | 200 to 500
12 | CCS(=O)(=O)c1ccc(C(Oc2ccccc2)C(=O)Nc2nc3cc(OC)c(OC)cc3s2)cc1 (centres unmarked) | > 500
13 | CCS(=O)(=O)c1ccc(C(OCCCOC)C(=O)Nc2nc3cc(OC)c(OC)cc3s2)cc1 (centres unmarked) | > 500
14 | CCS(=O)(=O)c1ccc(C(Oc2ccc3ccccc3c2)C(=O)Nc2nc3cc(OC)c(OC)cc3s2)cc1 (centres unmarked) | > 500
15 | COCCOc1ccc(OC(C(=O)Nc2nc3cc(OC)c(OC)cc3s2)c2ccc(C#N)cc2)cc1 (centres unmarked) | 50 to 100
16 | CCS(=O)(=O)c1ccc(C(Oc2ccc(C3CCCC3)cc2)C(=O)Nc2nc3cc(OC)c(OC)cc3s2)cc1 (centres unmarked) | 200 to 500
17 | CCS(=O)(=O)c1ccc(C(C(=O)Nc2nc3cc(OC)c(OC)cc3s2)N2CCOCC2)cc1 (centres unmarked) | > 500
18 | CCS(=O)(=O)c1ccc(C(Oc2ccccc2I)C(=O)Nc2nc3cc(OC)c(OC)cc3s2)cc1 (centres unmarked) | 200 to 500
19 | CCS(=O)(=O)c1ccc(C(Oc2ccc(C#N)cc2C(F)(F)F)C(=O)Nc2nc3cc(OC)c(OC)cc3s2)cc1 (centres unmarked) | 100 to 200
20 | CCS(=O)(=O)c1ccc(C(Oc2ccc(C#N)cc2)C(=O)Nc2nc3ccc(N4CCOCC4)cc3s2)cc1 (centres unmarked) | > 500
21 | CCS(=O)(=O)c1ccc(C(Oc2ccc(C#N)cc2)C(=O)Nc2nc3cc(OCC4CC4)c(OC)cc3s2)cc1 (centres unmarked) | > 500
22 | CCS(=O)(=O)c1ccc(C(Oc2ccc(OC)cc2)C(=O)Nc2nc3ccc4c(c3s2)OCO4)cc1 (centres unmarked) | > 500
23 | CCS(=O)(=O)c1cccc(C(Oc2ccc(OC)cc2)C(=O)Nc2nc3cc(OC)c(OC)cc3s2)c1 (centres unmarked) | > 500

Row | Compound | EC50 [nM]
24 | COc1cc2nc(NC(=O)C(Oc3ccc(C#N)cc3)c3ccc(C(=O)N4CCNCC4)cc3)sc2cc1OC (centres unmarked) | 200 to 500
25 | CCS(=O)(=O)c1ccc(C(Oc2ccc(C#N)cc2)C(=O)Nc2cc3ccccc3[nH]2)cc1 (centres unmarked) | > 500
26 | CCS(=O)(=O)c1ccc(C(OCC2CCOCC2)C(=O)Nc2nc3cc(OC)c(OC)cc3s2)cc1 (centres unmarked) | > 500
27 | CCS(=O)(=O)c1ccc(C(Oc2ccc(OC)cc2)C(=O)Nc2nc3ccc(N4CCN(C)CC4)cc3s2)cc1 (centres unmarked) | > 500
28 | CCCc1ccc(OC(C(=O)Nc2nc3cc(OC)c(OC)cc3s2)c2ccc(S(=O)(=O)CC)cc2)cc1 (centres unmarked) | 200 to 500
29 | CCN(CC)c1ccc2sc(NC(=O)Cc3ccc(S(=O)(=O)CC)cc3)nc2c1 | > 500
30 | COC(=O)c1ccc(OC(C(=O)Nc2nc3cc(OC)c(OC)cc3s2)c2ccc(C#N)cc2)cc1 (centres unmarked) | < 50
31 | COc1cc2nc(NC(=O)C(Oc3ccc(C#N)cc3)c3ccccc3)sc2cc1OC (centres unmarked) | 100 to 200
32 | COc1cc2nc(NC(=O)Cc3cccc(C(=O)N(C)C)c3)sc2cc1OC | > 500
33 | COCCNC(=O)c1ccc(C(Oc2ccc(C#N)cc2)C(=O)Nc2nc3cc(OC)c(OC)cc3s2)cc1 (centres unmarked) | 50 to 100
34 | CCS(=O)(=O)c1ccc(C(OCCC(C)C)C(=O)Nc2nc3cc(OC)c(OC)cc3s2)cc1 (centres unmarked) | > 500
35 | COc1cc2nc(NC(=O)C(Oc3ccc(C#N)cc3)c3ccc(S(=O)(=O)Cc4ccccc4)cc3)sc2cc1OC (centres unmarked) | 200 to 500
36 | CCS(=O)(=O)c1ccc(C(OCc2ccccc2)C(=O)Nc2nc3cc(OC)c(OC)cc3s2)cc1 (centres unmarked) | > 500
37 | CCS(=O)(=O)c1ccc(C(Oc2ccc(C(=O)N(C)C)cc2)C(=O)Nc2nc3cc(OC)c(OC)cc3s2)cc1 (centres unmarked) | < 50
38 | CCS(=O)(=O)c1ccc(C(Oc2ccc(N(C)C)cc2)C(=O)Nc2nc3cc(OC)c(OC)cc3s2)cc1 (centres unmarked) | 200 to 500
39 | CCS(=O)(=O)c1ccc(C(Oc2ccc(C#N)cc2)C(=O)Nc2nc3ccc(OCCO)cc3s2)cc1 (centres unmarked) | > 500
40 | COc1cc2nc(NC(=O)C(Oc3ccc(C#N)cc3)c3ccc(C(=O)O)cc3)sc2cc1OC (centres unmarked) | > 500
41 | CCS(=O)(=O)c1ccc(C(C(=O)Nc2nc3cc(OC)c(OC)cc3s2)C(C)C)cc1 (centres unmarked) | 200 to 500
42 | COCCS(=O)(=O)c1ccc(C(Oc2ccc(C#N)cc2)C(=O)Nc2nc3cc(OC)c(OC)cc3s2)cc1 (centres unmarked) | < 50
43 | CCS(=O)(=O)c1ccc(C(C(=O)Nc2nc3cc(OC)c(OC)cc3s2)N2CCCCC2)cc1 (centres unmarked) | > 500
44 | CCS(=O)(=O)c1ccc(C(Oc2ccc(C#N)cc2)C(=O)Nc2nc3cc4c(cc3s2)OCO4)cc1 (centres unmarked) | > 500
45 | CCS(=O)(=O)c1ccc(C(Oc2ccc(C#N)cc2)C(=O)Nc2nc3c(OC)ccc(OC)c3s2)cc1 (centres unmarked) | 50 to 100
46 | COc1cc2nc(NC(=O)C(Oc3ccc(C#N)cc3)c3ccc(OC(C)C)cc3)sc2cc1OC (centres unmarked) | < 50

Row | Compound | EC50 [nM]
47 | CCS(=O)(=O)c1ccc(C(Oc2cccc3ccccc23)C(=O)Nc2nc3cc(OC)c(OC)cc3s2)cc1 (centres unmarked) | > 500
48 | CCS(=O)(=O)c1ccc(C(Nc2ccc(OC)cc2)C(=O)Nc2nc3cc(OC)c(OC)cc3s2)cc1 (centres unmarked) | > 500
49 | COc1cc2nc(NC(=O)Cc3ccccc3C(=O)O)sc2cc1OC | > 500
50 | CCS(=O)(=O)c1ccc(C(Oc2ccc(OCc3ccccc3)cc2)C(=O)Nc2nc3cc(OC)c(OC)cc3s2)cc1 (centres unmarked) | > 500
51 | CCS(=O)(=O)c1ccc(C(Nc2ccccc2OC)C(=O)Nc2nc3cc(OC)c(OC)cc3s2)cc1 (centres unmarked) | > 500
52 | COc1cc2nc(NC(=O)C(Oc3ccc(C#N)cc3)c3ccccc3S(=O)(=O)c3ccc(F)cc3)sc2cc1OC (centres unmarked) | 200 to 500
53 | COc1cc2nc(NC(=O)C(Oc3ccc(OCCN(C)C)cc3)c3ccc(C#N)cc3)sc2cc1OC (centres unmarked) | 100 to 200
54 | COc1cc2nc(NC(=O)C(Oc3ccc(C#N)cc3)c3ccc(F)cc3)sc2cc1OC (centres unmarked) | 200 to 500
55 | CCS(=O)(=O)c1cccc(CC(=O)Nc2nc3cc(OC)c(OC)cc3s2)c1 | > 500
56 | CCS(=O)(=O)c1ccc(C(C(=O)Nc2nc3cc(OC)c(OC)cc3s2)N(C)C)cc1 (centres unmarked) | > 500
57 | COc1cc2nc(NC(=O)Cc3ccc(S(=O)(=O)C(C)C)cc3)sc2cc1OC | > 500
58 | CCS(=O)(=O)c1ccc(C(Oc2ccc(C#N)cc2)C(=O)Nc2nc3cc(C)c(OC)cc3s2)cc1 (centres unmarked) | > 500
59 | CCS(=O)(=O)c1ccc(C2(C(=O)Nc3nc4cc(OC)c(OC)cc4s3)CC2)cc1 | > 500
60 | COc1cc2nc(NC(=O)C(Oc3ccc(C#N)cc3)c3ccc(C(=O)N(C)C)cc3)oc2cc1OC (centres unmarked) | < 50
61 | COc1cc2nc(NC(=O)C(Oc3ccc(C#N)cc3)c3ccc(C(=O)NCCN4CCCC4)cc3)sc2cc1OC (centres unmarked) | 200 to 500
62 | CCS(=O)(=O)c1ccc([C@@H](Oc2ccc(C#N)cc2)C(=O)Nc2nc3cc(OC)c(OC)cc3s2)cc1 | 100 to 200
63 | COc1cc2nc(NC(=O)C(Oc3ccc(C#N)cc3)c3ccccc3S(=O)(=O)C(C)C)sc2cc1OC (centres unmarked) | 100 to 200
64 | CCCCOc1ccc(OC(C(=O)Nc2nc3cc(OC)c(OC)cc3s2)c2ccc(S(=O)(=O)CC)cc2)cc1 (centres unmarked) | > 500
65 | CCS(=O)(=O)c1ccc(C(Oc2ccc(C#N)cc2)C(=O)Nc2nc3nc(OCCOC)c(OC)cc3s2)cc1 (centres unmarked) | > 500
66 | CCCCS(=O)(=O)c1cccc(C(Oc2ccc(C#N)cc2)C(=O)Nc2nc3cc(OC)c(OC)cc3s2)c1 (centres unmarked) | 50 to 100
67 | COc1ccc(S(=O)(=O)c2ccc(C(Oc3ccc(C#N)cc3)C(=O)Nc3nc4cc(OC)c(OC)cc4s3)cc2)cc1 (centres unmarked) | 100 to 200
68 | COc1ccc(OC(C(=O)Nc2nc3cc(OC)c(OC)cc3s2)c2ccccc2S(=O)(=O)c2ccc(OC)cc2)cc1 (centres unmarked) | > 500
